Like-named read-outs stand apart in the source and are kept apart here.
Experiments:
5-HT2C receptor = target: T1, 5-HT2C receptor (Homo sapiens, UniProt P28335); assay: biochemical; format: binding; conditions: HEK293 stable cell line, 2 nM [3H]mesulergine, 1 h, 25° C.; for Ki: read-out: 5-HT2C Ki (nM) ([3H]mesulergine)
T1 construct: WuXi AppTec (Hong Kong) Limited (contract laboratory that ran the assay)
T1 sequence (P28335 33-458): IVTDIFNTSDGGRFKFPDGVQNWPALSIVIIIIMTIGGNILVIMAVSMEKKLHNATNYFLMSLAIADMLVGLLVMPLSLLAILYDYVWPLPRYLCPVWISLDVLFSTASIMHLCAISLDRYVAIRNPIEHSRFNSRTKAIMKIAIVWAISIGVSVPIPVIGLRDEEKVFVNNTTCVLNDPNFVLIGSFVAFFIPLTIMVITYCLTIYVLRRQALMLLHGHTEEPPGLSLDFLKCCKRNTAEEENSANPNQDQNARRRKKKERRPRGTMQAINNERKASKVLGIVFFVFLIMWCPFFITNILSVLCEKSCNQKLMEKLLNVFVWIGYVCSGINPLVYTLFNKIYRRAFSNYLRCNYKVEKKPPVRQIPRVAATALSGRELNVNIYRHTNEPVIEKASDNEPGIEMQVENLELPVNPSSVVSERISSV

5-HT2A receptor [1] = target: T2, 5-HT2A receptor (Homo sapiens, UniProt P28223); assay: 5-HT2A radioligand binding with [3H]ketanserin
T2 construct: WuXi AppTec (Hong Kong) Limited (contract laboratory that ran the assay)
T2 sequence (P28223 whole entry): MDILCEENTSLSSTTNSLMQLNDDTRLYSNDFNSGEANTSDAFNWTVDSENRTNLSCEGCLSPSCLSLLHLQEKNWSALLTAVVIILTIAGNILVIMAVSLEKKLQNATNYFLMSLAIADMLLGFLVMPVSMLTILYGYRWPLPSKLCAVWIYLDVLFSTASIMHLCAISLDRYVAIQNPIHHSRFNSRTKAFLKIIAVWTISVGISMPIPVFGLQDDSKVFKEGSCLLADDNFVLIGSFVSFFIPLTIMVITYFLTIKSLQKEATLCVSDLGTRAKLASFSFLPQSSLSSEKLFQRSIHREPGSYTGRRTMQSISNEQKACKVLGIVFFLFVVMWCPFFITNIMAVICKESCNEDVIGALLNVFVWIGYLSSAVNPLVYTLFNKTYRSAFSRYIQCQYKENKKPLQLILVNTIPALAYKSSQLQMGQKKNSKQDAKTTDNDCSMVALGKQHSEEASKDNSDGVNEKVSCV
Protocol: The binding affinities of key peripheral 5-HT2A receptor antagonists, as well as reference 5-HT2A agonists, at the ketanserin binding site of the 5-HT2A receptor and the mesulergine binding site of the 5-HT2C receptor were determined in radioligand binding experiments.
Method. Affinity of the test compounds for the 5-HT2A and 5-HT2C receptors was determined in radioligand binding experiments with [^3H] ketanserin and [^3H] mesulergine, respectively, by WuXi AppTec (Hong Kong) Limited, using methods adapted from the literature and under conditions described in Table 1.

in vitro = assay: in vitro; parameters: fraction unbound at 4 h: dose or concentration left out as unconfirmed; conditions: rat, brain homogenate
Protocol: Various putative peripheral 5-HT2A receptor antagonists were tested for binding to rat brain homogenate via equilibrium dialysis, with the results summarized in Table 7.
Method 1. Rat brain homogenate was thawed in a water bath at room temperature and then incubated at 37° C. for 10 min before use. Aliquots of 50 μL of loading matrix containing test compound (2 μM final incubation concentration) or control compound in triplicate were transferred to a Sample Collection Plate. The samples were matched with opposite blank buffer to obtain a final volume of 100 μL with a volume ratio of matrix: Dialysis Buffer of 1:1 (v:v) in each well. The stop solution (200 ng/mL tolbutamide and 200 ng/ml labetalol in ACN) was immediately added to these T0 samples of test compound and control compound. The plate was sealed and shaken at 800 rpm for 10 min. T0 samples were stored at 2-8° C. pending further processing along with other post-dialysis samples. An aliquot of 100 μL of the loading matrix containing test compound or control compound was transferred to the donor side of each dialysis well in triplicate and 100 μL of the Dialysis Buffer was loaded to the receiver side of the well. Then the plate was rotated at approximately 100 rpm in a humidified incubator with 5% CO2 at 37±1° C. for 4 hours. At the end of the dialysis. aliquots of 50 μL from the buffer side and matrix side of the dialysis device were taken into new 96-well plates (Sample Collection Plates). An equal volume of opposite blank matrix (buffer or matrix) in each sample was added to reach a final volume of 100 μL, with a volume ratio of matrix: Dialysis Buffer of 1:1 (v:v) in each well. All samples were further processed by protein precipitation before LC-MS/MS analysis.
Method 2. Aliquots (200 μL) of test compounds and positive controls at […] in rat brain homogenate (triplicates) were added to the rapid equilibrium dialysis (RED) chamber of dialysis inserts. A 350 μL aliquot of dialysis buffer was added to the buffer chamber of the inserts. After sealing the RED device with an adhesive film, dialysis was conducted at 37° C. with shaking at 100 RPM for 4 hours. Following dialysis, an aliquot of 50 μL was removed from each well (brain homogenate and buffer) and diluted with an equal volume of opposite matrix to nullify the matrix effect. Similarly, buffer was added to recovery and stability samples. An aliquot of 100 μL was used for LC-MS/MS analysis following protein precipitation with ACN containing internal standard.

5-HT2A receptor [2] = target: T2, 5-HT2A receptor; assay: FLIPR Ca2+ flux functional assay, antagonist activity at 5-HT2A; format: cell-based; conditions: for 5-HT2A % Inh @ Max Dose: at max dose
Protocol: Key peripheral 5-HT2A receptors antagonists were tested for antagonist activity at several serotonin (5-HT) receptor subtypes (5-HT2A and 5-HT2B) using Ca^2+ flux functional assays, with the results summarized in Table 3. […] The ability to block peripheral 5-HT2B receptors in addition to 5-HT2A receptors is advantageous in the context of the present disclosure, as such blockade is likely to mitigate the potential cardiac valvulopathy induced by 5-HT2B receptor agonists. This is expected to be a potential side effect of many classical psychedelics, which activate 5-HT2B receptors as a secondary target. Accordingly, xylamidine and BW501C67 are preferred over Compound 14a for use in combination with 5-HT2A receptor agonists that also activate 5-HT2B receptors, since they also block this important off target. When taken together with the binding data presented above, xylamidine and BW501C67 appear to be potent pan-antagonists for 5-HT2-type receptors, whereas Compound 14a is selective for 5-HT2A receptors specifically.
Functional Assays at 5-HT2A and 5-HT2B. Antagonist activity at 5-HT2A and 5-HT2B receptors was determined using a FLIPR Ca^2+ flux assay at WuXi AppTec (Hong Kong) Limited according to their standard protocols. Briefly, stably transfected HEK293 cells expressing the receptor of interest were grown and plated in a 384 well plate and incubated at 37° C. and 5% CO2 overnight. This was combined with a fluorescent dye (Fluo-4 Direct™) to make a final assay concentration of 2.5 mM. Compounds were diluted 1:3.16 for 10 points and 750 nL was added to a 384 well compound plate using ECHO along with 30 μL assay buffer. The fluorescent dye was then added to the assay plate along with assay buffer to a final volume of 40 μL. The cell plate was incubated for 50 min at 37° C. and 5% CO2 and placed into the FLIPR Tetra along with the compound plate. 10 μL of references and compounds were then transferred from the compound plate into the cell plate and the fluorescent signal was read. Next, 10 μL of a 6× solution of 5-carboxamidotryptamine (5-CT) at the calculated EC80 was added and the fluorescent signal read again. Finally, the Max-Min signal was calculated for the runs with and without agonist.

[3] = HEK293 stable cell line, 1 nM [3H]ketanserin, 1 h, 25° C., read-out: 5-HT2A Ki (nM) ([3H]ketanserin)
[4] = antagonist activity, Ca2+ flux, HEK293 cells, agonist at EC80, read-out: 5-HT2A IC50

SMILES	5-HT2C Ki (nM) ([3H]mesulergine) (5-HT2C receptor)	Ki (5-HT2C receptor)	Ki (5-HT2A receptor [1])	fraction unbound at 4 h, 2 μM (in vitro)	IC50 (5-HT2A receptor [2])	5-HT2A % Inh @ Max Dose (5-HT2A receptor [2]; antagonist activity, Ca2+ flux)	Ki (5-HT2A receptor [1]; [3])	fraction unbound at 4 h (in vitro)	IC50 (5-HT2A receptor [2]; [4])
CC(CNC(=N)CNc1ccccc1)Oc1cccc(Cl)c1.O=CO (stereo not drawn) [BW501C67, N-(2-(3-chlorophenoxy)propyl)-2-(phenylamino)acetimidamide formate]	high affinity	1.34 nM	0.42 nM	0.003	14.5 nM	100.13%	–	–	–
CC(C)COc1ccc(CNC(=O)N(Cc2ccc(F)cc2)C2CCN(C(=O)CC[C@H](N)C(=O)O)CC2)cc1 [Compound 14a, (S)-2-amino-5-(4-(1-(4-fluorobenzyl)-3-(4-isobutoxybenzyl)ureido)piperidin-1-yl)-5-oxopentanoic acid]	–	106 nM	–	–	–	100.01%	3.83 nM	0.078	297 nM
COc1cccc(CCc2ccccc2OCC(CN(C)C)OC(=O)CCC(=O)O)c1 (stereo not drawn) [sarpogrelate]	–	–	–	–	–	–	–	0.054	–
COc1cccc(C(=O)Nc2ccc(OCCN3CCOCC3)c(-c3ccnn3C)c2)c1 [temanogrel]	–	–	–	–	–	–	–	0.108	–
COc1cccc(OC(C)CNC(=N)Cc2cccc(C)c2)c1.O=C(O)C(F)(F)F (stereo not drawn) [xylamidine, N-(2-(3-methoxyphenoxy)propyl)-2-(m-tolyl) acetimidamide trifluoroacetate]	high affinity	1.45 nM	–	–	–	99.81%	0.55 nM	–	24 nM
